biological target: T1, human κ opioid receptors (Homo sapiens, UniProt P41145); assay: Opioid receptor function test (Lance Ultra cAMP kit, agonist activity); format: cell-based; settings: CHO cells expressing human κ opioid receptors, 10 μM forskolin, 30 minutes
T1 construct: host or cells: CHO cells
Description: Opioid Receptor Function Test
The function activity of the compound of the present invention on κ opioid receptors was examined.
Method: Using a Lance Ultra cAMP kit (Perkin Elmer), the examination was performed according to a predetermined method. In evaluation of agonist activity, CHO cells expressing human κ opioid receptors (Catalog No. CT6606, accession No. NM_000912) and a test compound were reacted in an assay buffer (1×HSS, 5 mM HEPES, pH 7.4, 0.5 mM IBMX (isobutylmethyixanthine), 0.1% SA) in the presence of 10 μM forskolin for 30 minutes. Subsequently, a cAMP detection reagent in the kit was added. One hour later, time-resolved fluorescence measurement was performed using an EnVision plate reader (Perkin Elmer). The evaluation of the test compound was performed in a concentration range of 10^−14 to 10^−7 M for the κ opioid receptor function test.

T1 sequence (P41145 whole entry): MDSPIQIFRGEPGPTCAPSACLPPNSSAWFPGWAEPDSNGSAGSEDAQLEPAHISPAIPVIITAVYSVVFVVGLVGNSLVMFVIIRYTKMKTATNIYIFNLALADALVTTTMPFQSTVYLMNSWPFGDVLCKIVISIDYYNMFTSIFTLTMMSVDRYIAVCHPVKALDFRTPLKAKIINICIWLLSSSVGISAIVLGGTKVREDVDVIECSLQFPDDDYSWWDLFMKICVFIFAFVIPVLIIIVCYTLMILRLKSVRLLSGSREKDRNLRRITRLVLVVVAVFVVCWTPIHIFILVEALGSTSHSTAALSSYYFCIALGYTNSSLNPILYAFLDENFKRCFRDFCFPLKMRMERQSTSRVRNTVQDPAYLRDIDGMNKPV

Row | Compound | EC50 [nM]
1 | Oc1ccc2c(c1)[C@@]13CCN(CCN4CCCCC4)CC[C@@]1(O)[C@@H](C2)N(CC1CC1)CC3 [Example 130, (5aS,6R,11bS)-14-(cyclopropylmethyl)-3-(2-(piperidin-1-yl)ethyl)-2,3,4,5,6,7-hexahydro-6,11b-(epiminoethano)naphtho[1,2-d]azepine-5a,10(1H)-diol] | 0.36
2 | C[Si]1(C)CCN(CC(=O)N2CC[C@]34CCN(CC5CC5)[C@H](Cc5ccc(O)cc53)[C@]4(O)CC2)CC1 [Example 132, 1-((5aS,6R,11bR)-14-(cyclopropylmethyl)-5a,10-dihydroxy-1,2,5,5a,6,7-hexahydro-6,11b-(epiminoethano)naphtho[1,2-d]azepin-3(4H)-yl)-2-(4,4-dimethyl-1,4-azasilinan-1-yl)ethan-1-one] | 0.16
3 | C[Si]1(C)CCN(CCN2CC[C@]34CCN(CC5CC5)[C@H](Cc5ccc(O)cc53)[C@]4(O)CC2)CC1 [Example 133, (5aS,6R,11bS)-14-(cyclopropylmethyl)-3-(2-(4,4-dimethyl-1,4-azasilinan-1-yl)ethyl)-2,3,4,5,6,7-hexahydro-6,11b-(epiminoethano)naphtho[1,2-d]azepine-5a,10(1H)-diol] | 0.033
4 | Oc1ccc2c(c1)[C@]13CCN(CC4CC4)[C@H](C2)[C@]1(O)CCCN(CCc1ccccn1)C3 [Example 137, (5aS,6R,11bS)-14-(cyclopropylmethyl)-2-(2-(pyridin-2-yl)ethyl)-2,3,4,5,6,7-hexahydro-6,11b-(epiminoethano)naphtho[1,2-c]azepine-5a,10(1H)-diol] | 0.14
5 | O=C(Cn1cc(C(F)(F)F)cn1)N1CC[C@]23CCN(CC4CC4)[C@H](Cc4ccc(O)cc42)[C@]3(O)CC1 [Example 143, 1-((5aS,6R,11bR)-14-(cyclopropylmethyl)-5a,10-dihydroxy-1,2,5,5a,6,7-hexahydro-6,11b-(epiminoethano)naphtho[1,2-d]azepin-3(4H)-yl)-2-(4-(trifluoromethyl)-1H-pyrazol-1-yl)ethan-1-one] | 0.033
6 | Oc1ccc2c(c1)[C@@]13CCN(CCn4cc(C(F)(F)F)cn4)CC[C@@]1(O)[C@@H](C2)N(CC1CC1)CC3 [Example 144, (5aS,6R,11bS)-14-(cyclopropylmethyl)-3-(2-(4-(trifluoromethyl)-1H-pyrazol-1-yl)ethyl)-2,3,4,5,6,7-hexahydro-6,11b-(epiminoethano)naphtho[1,2-d]azepine-5a,10(1H)-diol] | 0.019
7 | CC(C)(C)c1cnn(CCN2CC[C@]34CCN(CC5CC5)[C@H](Cc5ccc(O)cc53)[C@]4(O)CC2)c1 [Example 149, (5aS,6R,11bS)-3-(2-(4-(tert-butyl)-1H-pyrazol-1-yl)ethyl)-14-(cyclopropylmethyl)-2,3,4,5,6,7-hexahydro-6,11b-(epiminoethano)naphtho[1,2-d]azepine-5a,10(1H)-diol] | 0.023
8 | CCCN1CC[C@]23CCN(CCc4ccccn4)CC[C@@]2(O)[C@H]1Cc1ccc(O)cc13 [Example 159, (5aS,6R,11bS)-14-propyl-3-(2-(pyridin-2-yl)ethyl)-2,3,4,5,6,7-hexahydro-6,11b-(epiminoethano)naphtho[1,2-d]azepine-5a,10(1H)-diol] | 0.77
9 | O=C(Cn1cc(C2CC2)cn1)N1CC[C@]23CCN(CC4CC4)[C@H](Cc4ccc(O)cc42)[C@]3(O)CC1 [Example 160, 2-(4-cyclopropyl-1H-pyrazol-1-yl)-1-((5aS,6R,11bR)-14-(cyclopropylmethyl)-5a,10-dihydroxy-1,2,5,5a,6,7-hexahydro-6,11b-(epiminoethano)naphtho[1,2-d]azepin-3(4H)-yl)ethan-1-one] | 0.045
10 | Oc1ccc2c(c1)[C@@]13CCN(CCc4ccccn4)CC[C@@]1(O)[C@@H](C2)N(CC1CCC1)CC3 [Example 162, (5aS,6R,11bS)-14-(cyclobutylmethyl)-3-(2-(pyridin-2-yl)ethyl)-2,3,4,5,6,7-hexahydro-6,11b-(epiminoethano)naphtho[1,2-d]azepine-5a,10(1H)-diol] | 0.39
11 | Cc1cn(CC(=O)N2CC[C@]34CCN(CC5CC5)[C@H](Cc5ccc(O)cc53)[C@]4(O)CC2)nc1C(F)(F)F [Example 163, 1-((5aS,6R,11bR)-14-(cyclopropylmethyl)-5a,10-dihydroxy-1,2,5,5a,6,7-hexahydro-6,11b-(epiminoethano)naphtho[1,2-d]azepin-3(4H)-yl)-2-(4-methyl-3-(trifluoromethyl)-1H-pyrazol-1-yl)ethan-1-one] | 0.076
12 | Cc1cn(CCN2CC[C@]34CCN(CC5CC5)[C@H](Cc5ccc(O)cc53)[C@]4(O)CC2)nc1C(F)(F)F [Example 164, (5aS,6R,11bS)-14-(cyclopropylmethyl)-3-(2-(4-methyl-3-(trifluoromethyl)-1H-pyrazol-1-yl)ethyl)-2,3,4,5,6,7-hexahydro-6,11b-(epiminoethano)naphtho[1,2-d]azepine-5a,10(1H)-diol] | 0.26
13 | CC(C)c1cn(CC(=O)N2CC[C@]34CCN(CC5CC5)[C@H](Cc5ccc(O)cc53)[C@]4(O)CC2)nn1 [Example 165, 1-((5aS,6R,11bR)-14-(cyclopropylmethyl)-5a,10-dihydroxy-1,2,5,5a,6,7-hexahydro-6,11b-(epiminoethano)naphtho[1,2-d]azepin-3(4H)-yl)-2-(4-isopropyl-1H-1,2,3-triazol-1-yl)ethan-1-one] | 0.28
14 | Cc1ccn(CCN2CC[C@]34CCN(CC5CC5)[C@H](Cc5ccc(O)cc53)[C@]4(O)CC2)c1 [Example 166, (5aS,6R,11bS)-14-(cyclopropylmethyl)-3-(2-(3-methyl-1H-pyrrol-1-yl)ethyl)-2,3,4,5,6,7-hexahydro-6,11b-(epiminoethano)naphtho[1,2-d]azepine-5a,10(1H)-diol] | 0.31
15 | Cc1cc(CC(=O)N2CC[C@]34CCN(CC5CC5)[C@H](Cc5ccc(O)cc53)[C@]4(O)CC2)ns1 [Example 168, 1-((5aS,6R,11bR)-14-(cyclopropylmethyl)-5a,10-dihydroxy-1,2,5,5a,6,7-hexahydro-6,11b-(epiminoethano)naphtho[1,2-d]azepin-3(4H)-yl)-2-(5-methylisothiazol-3-yl)ethan-1-one] | 0.047
16 | O=C(CCn1cc(C(F)(F)F)cn1)N1CC[C@]23CCN(CC4CC4)[C@H](Cc4ccc(O)cc42)[C@]3(O)CC1 [Example 169, 1-((5aS,6R,11bR)-14-(cyclopropylmethyl)-5a,10-dihydroxy-1,2,5,5a,6,7-hexahydro-6,11b-(epiminoethano)naphtho[1,2-d]azepin-3(4H)-yl)-3-(4-(trifluoromethyl)-1H-pyrazol-1-yl)propan-1-one] | 0.094
17 | Oc1ccc2c(c1)[C@@]13CCN(CCCn4cc(C(F)(F)F)cn4)CC[C@@]1(O)[C@@H](C2)N(CC1CC1)CC3 [Example 179, (5aS,6R,11bS)-14-(cyclopropylmethyl)-3-(3-(4-(trifluoromethyl)-1H-pyrazol-1-yl)propyl)-2,3,4,5,6,7-hexahydro-6,11b-(epiminoethano)naphtho[1,2-d]azepine-5a,10(1H)-diol] | 0.024
18 | O=C(CN1CCC(F)(F)C1)N1CC[C@]23CCN(CC4CC4)[C@H](Cc4ccc(O)cc42)[C@]3(O)CC1 [Example 181, 1-((5aS,6R,11bR)-14-(cyclopropylmethyl)-5a,10-dihydroxy-1,2,5,5a,6,7-hexahydro-6,11b-(epiminoethano)naphtho[1,2-d]azepin-3(4H)-yl)-2-(3,3-difluoropyrrolidin-1-yl)ethan-1-one] | 0.32
19 | Oc1ccc2c(c1)[C@@]13CCN(CCN4CCC(F)(F)C4)CC[C@@]1(O)[C@@H](C2)N(CC1CC1)CC3 [Example 182, (5aS,6R,11bS)-14-(cyclopropylmethyl)-3-(2-(3,3-difluoropyrrolidin-1-yl)ethyl)-2,3,4,5,6,7-hexahydro-6,11b-(epiminoethano)naphtho[1,2-d]azepine-5a,10(1H)-diol] | 0.22
20 | Oc1ccc2c(c1)[C@@]13CCN(CCn4cc(C5CC5)cn4)CC[C@@]1(O)[C@@H](C2)N(CC1CC1)CC3 [Example 183, (5aS,6R,11bS)-3-(2-(4-cyclopropyl-1H-pyrazol-1-yl)ethyl)-14-(cyclopropylmethyl)-2,3,4,5,6,7-hexahydro-6,11b-(epiminoethano)naphtho[1,2-d]azepine-5a,10(1H)-diol] | 0.03
21 | Oc1ccc2c(c1)[C@@]13CCN(CCn4cc(F)cn4)CC[C@@]1(O)[C@@H](C2)N(CC1CC1)CC3 [Example 184, (5aS,6R,11bS)-14-(cyclopropylmethyl)-3-(2-(4-fluoro-1H-pyrazol-1-yl)ethyl)-2,3,4,5,6,7-hexahydro-6,11b-(epiminoethano)naphtho[1,2-d]azepine-5a,10(1H)-diol] | 0.095
22 | Cc1cc(CC(=O)N2CC[C@]34CCN(CC5CC5)[C@H](Cc5ccc(O)cc53)[C@]4(O)CC2)no1 [Example 185, 1-((5aS,6R,11bR)-14-(cyclopropylmethyl)-5a,10-dihydroxy-1,2,5,5a,6,7-hexahydro-6,11b-(epiminoethano)naphtho[1,2-d]azepin-3(4H)-yl)-2-(5-methylisoxazol-3-yl)ethan-1-one] | 0.39
23 | CN(C)CCC(=O)N1CC[C@]23CCN(CC4CC4)[C@H](Cc4ccc(O)cc42)[C@]3(O)CC1 [Example 186, 1-((5aS,6R,11bR)-14-(cyclopropylmethyl)-5a,10-dihydroxy-1,2,5,5a,6,7-hexahydro-6,11b-(epiminoethano)naphtho[1,2-d]azepin-3(4H)-yl)-3-(dimethylamino)propan-1-one] | 0.99
24 | Cc1cc(CCN2CC[C@]34CCN(CC5CC5)[C@H](Cc5ccc(O)cc53)[C@]4(O)CC2)no1 [Example 188, (5aS,6R,11bS)-14-(cyclopropylmethyl)-3-(2-(5-methylisoxazol-3-yl)ethyl)-2,3,4,5,6,7-hexahydro-6,11b-(epiminoethano)naphtho[1,2-d]azepine-5a,10(1H)-diol] | 0.69

From patent US20230087342A1, “AZEPANE DERIVATIVE” (Nippon Chemiphar Co., Ltd., priority 2019, published 2023)
